“Also recorded” adds a separate entry of the source.
Legend:
HeLa cells [1] = assay: Subcellular localization of CTP-β-gal by confocal scanning microscope; format: cell-based; settings: β-galactosidase fusion protein, 100 μg/ml, 1 hr
Text: To select cytoplamic transduction peptides (CTPs) of interest, HeLa cells were transduced with CTP-β-galactosidase, and then examined under the confocal scanning microscope. Before the confocal analysis, cells were stained with mouse anti-β-galactosidase antibody and 2nd antibodies conjugated with FITC (Fluorescence-iso-thio-cyanate) or with PE (phycoerythrin) together with DNA staining reagent (green fluorescence SYTO-16 DNA staining dye, Molecular Probe). First, HeLa cells (5×10^5 cells/ml) were plated onto a 6-well plate containing sterilized cover-slips and cultured overnight at 37° C. CO2 incubator. The cells were washed with PBS (pH 7.4) and 1 ml of an OPTI-MEM I medium was added, followed by treatment with candidate CTP-fused proteins (100 μg/ml). As a positive control, PTD-β-galactosidase fusion protein was employed, and as a negative control, only β-galactosidase protein was used. Following the treatment with candidate CTP-β-galactosidase fusion proteins, cells were incubated for 1 hr at 37° C. incubator. The cells were rinsed three times with PBS and fixed with 2% paraformaldehyde for 20 min at 4° C. HeLa cells fixed were washed twice with washing buffer (PBS containing 0.2% BSA and 0.02% sodium azide). To stain the cells with antibody, cells were pre-treated with 0.5% Triton X-100 (in PBS, Sigma) at 4° C. for 20 min. Cells were washed three times with washing buffer and then stained with mouse anti-β-galactosidase antibody (diluted 1:2,000, Sigma) for 1 hr at 4° C. as a primary antibody and then washed three times with washing buffer. Cells were then incubated with FITC-conjugated goat anti-mouse IgG (diluted 1:2,000, Jackson Laboratory) as a secondary antibody for 20 min at 4° C. Washed 3 times with the same washing buffer, cells were fixed on a slide glass with fluorescence mounting medium (DAKO) and the edge of slide glass was sealed with nail vanish.
Double staining was carried out with SYTO-16 DNA staining dye as follows: First, the cells were incubated with the primary antibodies under the same conditions and rinsed three times. Then, the cells were incubated at 4° C. for 20 min with PE-conjugated goat anti-mouse IgG PE (diluted 1:2,000, Jackson Laboratory). Washed three times with washing buffer, cells were incubated with SYTO-16 DNA staining dye (diluted 1:1,000, DAKO) for 20 min at 4° C. Cells were fixed and sealed on a slide glass and then examined under a confocal laser scanning microscope.
In the present experiment, LEICA TCS NT SP confocal microscope (LEICA Lasertech GmbH, Heidelverg, Germany) was employed, which was equipped with lager generator of argon (Ar) and krypton (Kr), scanning device, and filter capable of detecting FITC (510–550 nm) and PE (600–660) at independent channel. Photographs were taken by PL-APO X100 objective. For single staining, the cells were sectioned into 4-layers and fluorescence and transmission photographs were taken. For double staining, FITC, PE, and transmission photographs were taken using optimal respective filter.

HeLa cells [2] = assay: Transduction potential of FITC-labeled peptides by FACS; format: cell-based; settings: FITC-labeled peptide
Text: It has been shown by trypsin treatment that the transduction potential of the peptides known so far is distorted presumably due to the influence of cell fixation (46). Therefore, to verify that the CTP-β-gal of this invention has genuine transduction potential, trypsinization steps were included in the experiments as described above. At this time, since the activity of CTP per se may be affected by its fusion partner β-gal, CTP labeled with fluorescent molecule instead of β-gal was examined for its transduction capacity into cells. HeLa cells were treated with CTP-FITC and then trypsinized prior to harvest. The amounts of the peptides transduced into the cells were measured by FACS (Fluorescence-activated cell sorter) analysis with FACSCalibur (Becton Dickison, USA).
HeLa cells were inoculated into 12-well plates at a density of 2×10^5/ml and cultured for 1 day at 37° C. […] The cells were washed twice and the fluorescent intensity of each sample was measured by FACS.
In order to examine the transduction potential of peptides at different concentrations, cells were treated for 2 hr with peptides with increasing concentrations of peptides, and then trypsinized before examination. The fluorescent intensity in the cells was measured by FACS.

CTP512: CTP (2G4R8R9R), sequence YGRRARRRRRR; representative CTP used from Example 5-4 on
cytoplasmic remaining property / subcellular localization (HeLa cells [1]): excellent cytoplamic localization property; also recorded: excellent cytoplamic remaining property; also recorded: significantly high
cytoplasmic remaining property / subcellular localization (HeLa cells [1]; listed as CTP 512): excellent cytoplasmic remaining property
transduction potential at the same concentrations (HeLa cells [2]; 2 hr, trypsinized): significantly higher transduction potential than either PTD or MTS
transduction potential over time (HeLa cells [2]; trypsinized cells, FACS): higher transduction potential than the PTD in all period of time

From US7101844B2, “Cytoplasmic transduction peptides and uses thereof” (Creagene, Inc., priority 2002, dated 2006)
